24 compounds from the SangsterLogP compilation can be followed below.

The series in a line: method code SF-HPLC, from DOI: 10.1016/j.ecoenv.2011.11.024. Particulars: pH 2.0.
A word on the logD: it is the decadic logarithm of the distribution of all forms, ionised or not, between an organic phase and buffer at a given pH. Low values mean lower lipophilicity, high ones higher lipophilicity. In turn, `Sc1ccccc1Cl` came in with a log distribution coefficient (logD) of 2.27.

`COc1ccc(S)cc1OC` registered a logD of 3.32.

Consider `Fc1cc(F)c(F)c(S)c1F`, for which the pH-dependent lipophilicity (logD) turned out to be 1.76.

In the case of `Cc1ccc(S)c(C)c1`, the logD stood at 3.77.

In turn, `Sc1cc(Cl)ccc1Cl` gave a logD of 2.48.

`Sc1ccccc1Br` registered a pH-dependent lipophilicity (logD) of 2.44.

With `Fc1ccccc1S`, the logD is 1.9.

On to `Cc1ccc(C)c(S)c1`, for which the logD is 3.92.

`Sc1cc(Cl)cc(Cl)c1`: the logD stood at 2.43.

In the case of `Sc1ccc(Cl)cc1`, the logD came to 2.66.

In turn, `COc1cccc(S)c1` came in with a logD of 2.93.

`Sc1ccc(Cl)cc1Cl` returned a logD of 2.49.

`Cc1ccc(S)cc1C`: the logD amounted to 3.62.

As to `Sc1ccc(Br)cc1`, the log distribution coefficient (logD) was determined as 2.72.

For `Sc1c(Cl)cccc1Cl`, the logD was determined as 2.35.

In turn, `Cc1ccccc1S` had a logD of 3.52.

Compound `Sc1cccc(Cl)c1Cl` showed a log distribution coefficient (logD) of 2.44.

In turn, `Sc1cccc(Cl)c1` yielded a logD of 2.47. The logD values of the last two compounds are within 0.2 log units of each other.

With `Sc1cccc(Br)c1`, the logD was found to be 2.48.

Regarding `Cc1cccc(C)c1S`, the logD is 4.02.

For `Fc1ccc(S)cc1`, the logD amounted to 2.92.

`Fc1cccc(S)c1` showed a log distribution coefficient (logD) of 2.12.

Consider `Cc1ccc(S)cc1`, for which the logD was determined as 3.27.

`Cc1cccc(S)c1`: the pH-dependent lipophilicity (logD) turned out to be 3.13.
